Test results as given in US20040023901A1, “Nucleoside 5'-monophosphate mimics and their prodrugs” (priority 2002, published 2004).
Like-named read-outs stand apart in the source and are kept apart here.

Columns and labels:
[1] = bovine
Method: (§15) Fetal calf serum purchased from HyClone Corporation was mixed 1:1 with each compound containing Tris-HCl buffer and MgCl2. Typically the total volume used for the experiment was 500 μl.
(§16) The final concentrations of the reaction components were as follows:
(§17) The reaction mixtures were made up and incubated at 37° C. At appropriate times aliquots of 25 μl were removed and added to 65 μl ice-cold methanol. These solutions were incubated for at least one hour at −20° C. and typically overnight. After incubation samples were centrifuged for at least 20 minutes at high speed in a microcentrifuge. The supernatant was transferred to a clean tube and the extract was dried under vacuum in a LabConco Centrivap Concentrator. The dried extracts were resuspended in dH2O and filtered to remove particulate before analysis on reverse phase HPLC.
(§18) The reverse phase HPLC columns used for the analysis were either a Phenomenex C18 Aqua column (2×100 mm) or the Phenomenex C18 Aqua column (3×150 mm) used with the appropriate guard column. The HPLC was run at 0.2 ml/min (for the 2×100 mm column) or at 0.5 ml/min (for the 3×150 mm column) with the following buffer system: 5 mM tetrabutylammonium acetate, 50 nM ammonium phosphate, and an acetonitrile gradient running from 5% up to as high as 60%. The amount of remaining parent compound at each time point was used to determine the half-life of the compound. […] Unmodified nucleoside monophosphates were used as positive controls.

[2] = target: purified human type II IMPDH (Homo sapiens, UniProt P12268); test: Assay for inhibition of IMPDH activity (human type II); format: biochemical; conditions: 50 uM IMP, 150 uM NAD, 25° C.
Method: (§1) The assays employed to measure the inhibition of inosine monophosphate dehydrogenase (IMPDH) activity are described below. The effectiveness of the compounds of the present invention as inhibitors of IMPDH enzymes was determined in the following assays. This assay was used to measure the ability of the nucleotide mimics of the present invention to inhibit the enzymatic reaction catalyzed by IMPDH enzymes. The assay is useful for measuring the activity of IMPDH from several organisms, including human, fungal, and bacterial isoforms. In the enzymatic reaction, the oxidation of inosine 5′-monophosphate (IMP) to xanthosine 5′-monophosphate (XMP) is coupled to the reduction of nicotinamide adenine dinucleotide (NAD). This reaction is monitored at 340 nm using a UV/VIS spectrophotometer or at 474 nm using a fluorometer (excitation wavelength=344 nm). This assay is a modification of a reported method (W. Wang and L. Hedstrom, “A Potent ‘Fat Base’ Nucleotide Inhibitor of IMP Dehydrogenase,” Biochemistry 1998, 37, 11949-52).
(§2) Assay Buffer Conditions: (200 uL-total/reaction)
(§3) 30 nM purified human type II IMPDH, or
(§4) 7.5 nM purified Candida albicans IMPDH
(§5) The compounds were tested at various concentrations up to 500 uM final concentration. The standard IMPDH assay is performed in a 96-well plate (Corning). An appropriate volume of assay buffer, containing the substrates IMP and NAD, was pipetted into the plate wells. Nucleoside derivatives of the present invention were added to the reactions at the desired concentrations. The reactions were initiated by the addition of enzyme. The reactions were allowed to proceed for 5 minutes at 25° C. The production of NADH was monitored at 340 nm on a microplate spectrophotometer (Molecular Devices Corp, Sunnyvale, Calif.). Initial velocity data (mA min^−1) was collected and fit to the equations below. Blank reactions were prepared in parallel with the test reactions in which enzyme was omitted from the reactions, substituted by an appropriate volume of enzyme diluent.
(§6) The percentage of inhibition was calculated according to the following equation:
(§7) % Inhibition=[1−(mA min^−1 in test reaction−mA min^−1 in blank)/(mA min^−1 in control reaction−mA min^−1 in blank)]×100.
(§8) Each inhibitor was titrated over an appropriate range of concentrations, and inhibition constants were determined using the following equations where v=initial velocity, Vm=maximal velocity, S=substrate, I=inhibitor, Km=Michaelis constant, and Ki=inhibition constant:
(§9) Michaelis-Menten Equation: […]
(§10) Competitive Inhibition Equation:
(§11) Inhibition constants (Ki) for irreversible inhibitors of IMPDH were determined using the following three equations where kobs=observed rate constant, t=time, A=absorbance at time t, A0=initial absorbance at time zero, V0=initial rate, S=substrate, I=inhibitor, k2=[…] rate constant, Km=Michaelis constant, Ki, app=apparent inhibition constant, and Ki=inhibition constant:
(§12) Irreversible Inhibition Equations 1-3:
(§13) A−A0=V0[1−exp(−kobst)] (equation 1)
(§14) Kobs=k2[I]/(Ki, app+[I]) (equation 2)

[3] = target: purified Candida albicans IMPDH (Candida albicans, UniProt O00086); test: Assay for inhibition of IMPDH activity (C. albicans); format: biochemical; conditions: for Ki: C. albicans IMPDH, 50 uM IMP, 150 uM NAD, 25° C.; for inhibition at 100 µM: read-out: % Inhibition at 100 μM C. albicans
Method: as §1, §2, §3, §4, §5, §6, §7, §8, §9, §10, §11, §12, §13, §14

[4] = in vitro; conditions: bovine, 10% (v/v) fetal calf serum, pH 7.4
Method: as §15, §16, §17, §18

[5] = Serum stability assessment in fetal calf serum; conditions: 10% (v/v) fetal calf serum, 37° C., 500 μM nucleotide mimic, time points through 24 hours
Method: as §15, §16, §17, §18

Chain of purified Candida albicans IMPDH (O00086 whole entry): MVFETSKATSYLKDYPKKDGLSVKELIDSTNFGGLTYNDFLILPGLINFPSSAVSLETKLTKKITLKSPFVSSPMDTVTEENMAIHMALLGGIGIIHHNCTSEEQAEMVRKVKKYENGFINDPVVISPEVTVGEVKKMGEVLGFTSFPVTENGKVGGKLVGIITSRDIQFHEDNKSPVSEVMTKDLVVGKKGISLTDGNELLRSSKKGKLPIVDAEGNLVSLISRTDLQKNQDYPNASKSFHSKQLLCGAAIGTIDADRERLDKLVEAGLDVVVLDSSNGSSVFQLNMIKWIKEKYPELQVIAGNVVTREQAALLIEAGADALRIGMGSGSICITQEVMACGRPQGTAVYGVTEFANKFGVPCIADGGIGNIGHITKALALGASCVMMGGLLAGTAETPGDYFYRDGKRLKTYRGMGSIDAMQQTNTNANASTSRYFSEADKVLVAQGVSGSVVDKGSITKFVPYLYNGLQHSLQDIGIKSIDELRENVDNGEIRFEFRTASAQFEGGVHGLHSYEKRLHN

Molecule | Ki [2] [µM] | Ki [3] [µM] | further results
5-Ethynyl-1-(5-methylphopsphonyl-β-D-ribofuranosyl)imidazole-4-carboxamide [Compound 10] |  |  | Serum t1/2 [1]: >8 h
NC(=O)c1ncn([C@@H]2O[C@H](COP(=O)(O)S)[C@H](O)C2O)n1 (stereo partly drawn) [Compound 1, 1-β-D-ribofuranosyl-1,2,4-triazole-3-carboxamide 5′-phosphothioate] | 0.94 | 1.34 | half-life at 500 μM [4]: 18 h
C#Cc1c(C(N)=O)ncn1[C@@H]1O[C@H](COP(=O)(O)S)[C@H](O)C1O (stereo partly drawn) [Compound 2, 5-Ethynyl-1-(1-D-ribofuranosyl)imidazole-4-carboxamide 5′-phosphorothioate] | 34.2 |  | inhibition at 100 µM [3]: 82%
NC(=O)c1ncn([C@@H]2O[C@H](COCP(=O)(O)O)[C@@H](O)[C@H]2O)n1 [Compound 19, 1-[5-O-(Dihydroxyphosphinyl)methyl-β-D-ribofuranosyl]-1,2,4-triazole-3-carboxamide] | 85 |  | 
NC(=O)c1ncn([C@@H]2O[C@H](CP(=O)(O)O)[C@@H](O)[C@H]2O)n1 [Compound 39, 1-[5-Deoxy-5-(dihydroxyphosphinyl)-β-D-ribofuranosyl]-1,2,4-triazole-3-carboxamide] | 1.82 | 1.48 | 
NC(=O)c1ncn([C@@H]2O[C@H](C[PH](=O)O)[C@H](O)C2O)n1 (stereo partly drawn) [Compound 40, 1-[5-Deoxy-5-(hydroxyl-H-phosphinyl)-β-D-ribofuranosyl]-11,24-triazole-3-carboxamide] |  |  | half-life at 500 μM [4]: > 24 h
NC(=O)c1ncn([C@@H]2O[C@H](CP(=O)(O)O)[C@H](O)C2O)c1O (stereo partly drawn) [Compound 44, 4-Carbamoyl-1-[5-deoxy-5-(dihydroxyphosphinyl)-β-D-ribofuranosyl]-1,3-imidazolium-5-olate] | 7.92 |  | inhibition at 100 µM [3]: 98.1%
NC(=O)c1ncn([C@@H]2O[C@H](CC(F)(F)P(=O)(O)O)[C@H](O)C2O)n1 (stereo partly drawn) [Compound 48] | 27.1 | 20.4 | half-life at 500 μM [4]: > 24 h
NC(=O)c1ncn([C@@H]2O[C@H](CC(F)(F)P(=O)(O)O)[C@H](O)C2O)c1O (stereo partly drawn) [Compound 50, 4-Carbamoyl-1-[5,6-dideoxy-6-(dihydroxyphosphinyl)-6,6-difluoro-β-D-allofuranosyl]-1,3-imidazolium-5-olate] | 2.04 |  | inhibition at 100 µM [3]: 71.5%
NC(=O)c1ncn([C@@H]2O[C@H](CO[PH](O)=S)[C@H](O)C2O)n1 (stereo partly drawn) [Compound 53, 1-[5-O-(H-Thiophosphonyl)-β-D-ribofuranosyl]-1,2,4-triazole-3-carboxamide] | 34.7 | 10.7 | 
C#Cc1c(C(N)=O)ncn1[C@@H]1O[C@H](COP(=O)(O)O)[C@@H](O)[C@H]1O [EICAR 5′-monophosphate] |  |  | Serum t1/2 [5]: 3 h
NC(=O)c1ncn([C@@H]2O[C@H](COP(=O)(O)O)[C@@H](O)[C@H]2O)n1 [Ribavirin 5′-monophosphate] |  |  | Serum t1/2 [5]: 6 h
